# Experiments:
# Assay type in all cases: cell-based
# human MSCs [1] = assay: Binding to and staining of human MSCs; details: photomicrographs, FIG. 4A
# ARH-77 cells [2] = assay: Binding to ARH-77 cells (fluorescence staining); details: 10 μM, 30 min; 530 nm/600 nm filter set; FIG. 2A
# Method: ARH-77 cells (an EBV-transformed B lymphoblastoid cell line established from cells of a patient with plasma cell leukemia) were incubated as indicated with PBS or 10 μM Compound 4 for 30 min. Cells were washed twice with 1 mL PBS, and staining was detected using a 530 nm/600 nm filter set on a Molecular Imaging Gel Logic system.
# [3] = system: Raji cells / rabbit dorsal femoral condyle explants; assay: Adherence of calcein-labeled Raji cells to rabbit dorsal femoral condyle explants; details: cells incubated with 10 μM compound in PBS, 30 min; 475/535 nm; FIG. 6B
# Method: Raji cells were labeled with calcein for 30 min, washed with PBS, and incubated with Compound 4 or Compound 20 (10 μM in PBS) or with PBS for 30 min. Cells were washed in PBS. Rabbit dorsal femoral condyle explants were then incubated for 30 min with (1) the PBS-incubated, calcein-labeled Raji cells or (2) the calcein-labeled Raji cells that had been incubated with 10 μM Compound 4 or Compound 20. Explants were washed twice with excess PBS, and the 475/535 nm filter set on the Molecular Imaging Gel Logic system was used to detect the binding of […] to the explants by detecting the calcein.
# human MSCs [4] = assay: Binding to human MSCs (visual inspection of staining); details: 5 μM or 10 μM, 30 min; FIG. 4A
# Method: Human MSCs were incubated without Compound 4 or with Compound 4 (5 μM or 10 μM) for 30 min and then washed twice with 1 mL PBS. Samples were visually inspected to determine staining
# ARH-77 cells [5] = assay: Binding of compounds to ARH-77 cells (Example B1a); details: photomicrographs, FIG. 2A
# human MSCs [6] = assay: Human MSC viability, trypan blue staining; details: 30 min, concentrations 20 μM or lower, FIG. 3B
# Method: (§1) Cell viability was measured by using trypan blue to stain dead cells. Cells (2×10^5) were incubated with various concentrations of Compound 4 for 30 min, and viable cells were counted and compared to the number of viable cells in an untreated sample. Values for treated cells were normalized to untreated cells.
# human MSCs [7] = assay: Viability and proliferation of human MSCs in the presence of compound (Example B2); details: concentrations of 20 μM or below
# [8] = system: MSCs from sheep bone marrow; assay: Differentiation of sheep MSCs to chondrocytes in pellet culture (modified Bern Score); details: for Cell Distance / Matrix Stain / Morphology: score 0-3; for Final Score (Bern Score): score 0-9
# Method: Compounds of the invention were assessed in an in vitro pellet cell culture model of chondrogenesis.
# Conditions tested were: • a. (1) Priming: exposure of cells to TGFβ3 prior to incubation with Compound 4 or Compound 20; • b. (2) Dose: Concentration of Compound 4 or Compound 20 that cells were incubated with prior to pellet culture; and • c. (3) Media: presence or absence of TGFβ3 in the media used for the 3-week pellet culture duration.
# A population of cells enriched for MSCs from sheep bone marrow was harvested, cultured and expanded. Cells from passage 3 (P3) were incubated with either chondrogenic differentiation medium for the Priming “+” groups or chondrogenic differentiation medium without TGFβ3 for the Priming “−” groups. Following centrifugation at 400×g for 5 min and gentle removal of the supernatant, cells were re-suspended with the appropriate number of cells in Compound 4 or Compound 20 in 1×PBS, pH 7, at following concentrations: 10 μM, 3.16 μM, 1 μM, and 0.316 μM of Compound 4; or 10 μM and 1 μM of Compound 20. For control conditions, cells were incubated in 1×PBS at pH 7. All treatment groups were then incubated for 30 min in the dark with nutation. Following centrifugation at 400×g for 5 min and gentle removal of the supernatant, cells were re-suspended and washed with 1×PBS at pH 7 and spun at 400×g for 5 min to remove supernatant. Depending on the condition, cells were re-suspended cells in chondrogenic differentiation medium OR in chondrogenic medium without TGFb3. Cells were counted, and approximately 2.5×10^5 cells were plated into polypropylene 96-well plates incubated under standard pellet culture conditions for three weeks. Medium was changed 3× weekly.
# Pellets were fixed in 10% formalin for at least 8 hours and then infiltrated with paraffin wax. Sections were then cut at approximately 5 microns and stained using safranin-orange, Fast Green, Haematoxylin-Eosin, and 1% Toluidine Blue.
# Histological grading was performed according to a modified Bern Score to assess chondrogenic morphology of the cells and any matrix deposition by the cells according to the following three criteria:
# The subcomponents of the Bern Score are additive. Accordingly, the Bern Score presents a maximum total score of 9 representing the best possible score and minimum score of 0 representing no chondrogenesis.
# In this Example, the Bern Score for Control pellets is a proxy for chondrogenic capacity of the cell population using a standard pellet culture protocol. […] Pellets that were formed using the 30 minute incubation protocol with only PBS replacing Compound 4 (0 μM Compound 4) are referred to as “PBS pellets.”
# Raji cells [9] = assay: Viability of Raji cells treated with compound (Example B2); details: concentrations of 20 μM or below, FIG. 3C
# Raji cells [10] = assay: Raji cell viability, trypan blue staining; details: times and concentrations tested (at or below 20 μM), FIG. 3C
# Method: as §1
# In a similar fashion to Example B2a, Compound 20 was assessed for its effect on viability of Raji cells as determined by trypan blue staining, as described in Example B2a.
# [11] = Differentiation Medium +, TGFβ3 Priming +, 0.316 μM
# [12] = Differentiation Medium +, TGFβ3 Priming +, 1 μM
# [13] = Differentiation Medium +, TGFβ3 Priming +, 3.16 μM
# [14] = Differentiation Medium +, TGFβ3 Priming +, 10 μM
# [15] = Differentiation Medium +, TGFβ3 Priming −, 0.316 μM
# [16] = Differentiation Medium +, TGFβ3 Priming −, 1 μM
# [17] = Differentiation Medium +, TGFβ3 Priming −, 3.16 μM
# [18] = Differentiation Medium +, TGFβ3 Priming −, 10 μM
# [19] = Differentiation Medium −, TGFβ3 Priming +, 0.316 μM
# [20] = Differentiation Medium −, TGFβ3 Priming +, 1 μM
# [21] = Differentiation Medium −, TGFβ3 Priming +, 3.16 μM
# [22] = Differentiation Medium −, TGFβ3 Priming +, 10 μM
smiles,measurement,setting,value
"Cc1cc2nc3cc(C)c(NCCCCCCCCNc4cc5c(cc4C)nc4cc(C)c(N)cc4[n+]5-c4ccccc4)cc3[n+](-c3ccccc3)c2cc1N.[Cl-].[Cl-] [Compound 4, 7,7′-(octane-1,8-diylbis(azanediyl))bis(3-amino-2,8-dimethyl-5-phenylphenazin-5-ium) chloride]",binding to and staining of human MSCs,human MSCs [1],binds to and stains
same,binding to ARH-77 cells,ARH-77 cells [2],binds to ARH-77 cells
same,Adherence of calcein-labeled Raji cells to explants,[3],promoted adherence
same,Binding to human MSCs (visual staining),human MSCs [4],binds human MSCs
same,binding to ARH-77 cells,ARH-77 cells [5],binding
same,Effect on viability of human MSCs,human MSCs [6],did not affect the viability
same,proliferation of human MSCs,human MSCs [7]; FIG. 3A,do not affect
same,viability of human MSCs relative to untreated human MSCs,human MSCs [7]; FIG. 3B,do not affect
same,Chondrogenic capacity (in words),[8]; 3.16 μM and differentiation medium,good chondrogenic capacity
same,Cell Distance,[8]; [11],3
same,Matrix Stain,[8]; [11],3
same,Morphology,[8]; [11],3
same,Final Score (Bern Score),[8]; [11],9
same,Cell Distance,[8]; [12],2.5
same,Matrix Stain,[8]; [12],3
same,Morphology,[8]; [12],2
same,Final Score (Bern Score),[8]; [12],7.5
same,Cell Distance,[8]; [13],2
same,Matrix Stain,[8]; [13],2
same,Morphology,[8]; [13],2
same,Final Score (Bern Score),[8]; [13],6
same,Cell Distance,[8]; [14],0
same,Matrix Stain,[8]; [14],0
same,Morphology,[8]; [14],0
same,Final Score (Bern Score),[8]; [14],0
same,Cell Distance,[8]; [15],2.5
same,Matrix Stain,[8]; [15],3
same,Morphology,[8]; [15],2.5
same,Final Score (Bern Score),[8]; [15],8
same,Cell Distance,[8]; [16],2
same,Matrix Stain,[8]; [16],2.5
same,Morphology,[8]; [16],2
same,Final Score (Bern Score),[8]; [16],6.5
same,Cell Distance,[8]; [17],2
same,Matrix Stain,[8]; [17],2
same,Morphology,[8]; [17],2
same,Final Score (Bern Score),[8]; [17],6
same,Cell Distance,[8]; [18],0
same,Matrix Stain,[8]; [18],0.5
same,Morphology,[8]; [18],0
same,Final Score (Bern Score),[8]; [18],0.5
same,Cell Distance,[8]; [19],0
same,Matrix Stain,[8]; [19],0
same,Morphology,[8]; [19],0
same,Final Score (Bern Score),[8]; [19],0
same,Cell Distance,[8]; [20],0
same,Matrix Stain,[8]; [20],0
same,Morphology,[8]; [20],0
same,Final Score (Bern Score),[8]; [20],0
same,Cell Distance,[8]; [21],0
same,Matrix Stain,[8]; [21],0.5
same,Morphology,[8]; [21],0
same,Final Score (Bern Score),[8]; [21],0.5
same,Cell Distance,[8]; [22],0
same,Matrix Stain,[8]; [22],0
same,Morphology,[8]; [22],0
same,Final Score (Bern Score),[8]; [22],0
"Cc1cc2nc3cc(C)c(NCCCCCCNC(=O)c4ccc(-c5ccc(C(=O)NCCCCCCNc6cc7c(cc6C)nc6cc(C)c(N)cc6[n+]7-c6ccccc6)cc5)cc4)cc3[n+](-c3ccccc3)c2cc1N.[Cl-].[Cl-] [Compound 20, (3-amino-7-{[6-({4-[4-({6-[(7-amino-5-chloranuide-2,8-dimethyl-5-phenyl-5λ^6,10-phenazin-5-ylium-3-yl)amino]hexyl}carbamoyl)phenyl]phenyl}formamido)hexyl]amino}-2,8-dimethyl-5-phenyl-5λ^6,10-phenazin-5-ylium-5-e)chloranuide]",Adherence of calcein-labeled Raji cells to explants,[3],promoted adherence
same,viability of Raji cells relative to untreated control Raji cells,Raji cells [9],do not affect
same,Toxic effects on Raji cells (viability),Raji cells [10],did not have toxic effects
same,Cell Distance,[8]; [12],3
same,Matrix Stain,[8]; [12],3
same,Morphology,[8]; [12],2.5
same,Final Score (Bern Score),[8]; [12],8.5
same,Cell Distance,[8]; [14],2.5
same,Matrix Stain,[8]; [14],2.5
same,Morphology,[8]; [14],2.5
same,Final Score (Bern Score),[8]; [14],7.5
same,Cell Distance,[8]; [16],2.5
same,Matrix Stain,[8]; [16],2.5
same,Morphology,[8]; [16],2
same,Final Score (Bern Score),[8]; [16],7
same,Cell Distance,[8]; [18],2
same,Matrix Stain,[8]; [18],2
same,Morphology,[8]; [18],2
same,Final Score (Bern Score),[8]; [18],6
same,Cell Distance,[8]; [20],0
same,Matrix Stain,[8]; [20],0
same,Morphology,[8]; [20],0
same,Final Score (Bern Score),[8]; [20],0
same,Cell Distance,[8]; [22],0
same,Matrix Stain,[8]; [22],0
same,Morphology,[8]; [22],0
same,Final Score (Bern Score),[8]; [22],0
same,Chondrogenic capacity (in words),[8]; either concentration tested (10 μM and 1 μM) and differentiation medium,good chondrogenic capacity
